Assay results published in patent US9012443B2 (Amgen Inc., priority 2011, dated 2015).

The compounds below were run against Nav 1.7 (Homo sapiens (Human), UniProt Q15858) (assay: Nav 1.7 in vitro PX assay (PatchXpress whole cell voltage clamp)). Details: 293 cells, human Nav1.7, partially inactivated state; read-out: Nav1.7 PX IC50 IP.
Type: cell-based
Protocol: Nav 1.7 In Vitro PX Assay
293 cells stably transfected with human Nav1.7 were recorded in whole cell voltage clamp mode with the PatchXpress automated electrophysiology system (Molecular Devices, LLC, Sunnyvale, Calif.). Compound effects were measured on a partially inactivated state of the sodium channel. Cells were clamped to a holding potential yielding 20 to 50% inactivation. To elicit sodium current, channels were activated by pulsing to −10 mV for 20 msec. […] A single concentration of test compound was applied to cells for a duration of 3 minutes. Peak sodium current was measured at the end of the compound addition period to determine percent inhibition. Three to five cells were tested per concentration, and IC50 curves were fitted to percent inhibition as a function of concentration.

Sequence of Nav 1.7 (Q15858 whole entry): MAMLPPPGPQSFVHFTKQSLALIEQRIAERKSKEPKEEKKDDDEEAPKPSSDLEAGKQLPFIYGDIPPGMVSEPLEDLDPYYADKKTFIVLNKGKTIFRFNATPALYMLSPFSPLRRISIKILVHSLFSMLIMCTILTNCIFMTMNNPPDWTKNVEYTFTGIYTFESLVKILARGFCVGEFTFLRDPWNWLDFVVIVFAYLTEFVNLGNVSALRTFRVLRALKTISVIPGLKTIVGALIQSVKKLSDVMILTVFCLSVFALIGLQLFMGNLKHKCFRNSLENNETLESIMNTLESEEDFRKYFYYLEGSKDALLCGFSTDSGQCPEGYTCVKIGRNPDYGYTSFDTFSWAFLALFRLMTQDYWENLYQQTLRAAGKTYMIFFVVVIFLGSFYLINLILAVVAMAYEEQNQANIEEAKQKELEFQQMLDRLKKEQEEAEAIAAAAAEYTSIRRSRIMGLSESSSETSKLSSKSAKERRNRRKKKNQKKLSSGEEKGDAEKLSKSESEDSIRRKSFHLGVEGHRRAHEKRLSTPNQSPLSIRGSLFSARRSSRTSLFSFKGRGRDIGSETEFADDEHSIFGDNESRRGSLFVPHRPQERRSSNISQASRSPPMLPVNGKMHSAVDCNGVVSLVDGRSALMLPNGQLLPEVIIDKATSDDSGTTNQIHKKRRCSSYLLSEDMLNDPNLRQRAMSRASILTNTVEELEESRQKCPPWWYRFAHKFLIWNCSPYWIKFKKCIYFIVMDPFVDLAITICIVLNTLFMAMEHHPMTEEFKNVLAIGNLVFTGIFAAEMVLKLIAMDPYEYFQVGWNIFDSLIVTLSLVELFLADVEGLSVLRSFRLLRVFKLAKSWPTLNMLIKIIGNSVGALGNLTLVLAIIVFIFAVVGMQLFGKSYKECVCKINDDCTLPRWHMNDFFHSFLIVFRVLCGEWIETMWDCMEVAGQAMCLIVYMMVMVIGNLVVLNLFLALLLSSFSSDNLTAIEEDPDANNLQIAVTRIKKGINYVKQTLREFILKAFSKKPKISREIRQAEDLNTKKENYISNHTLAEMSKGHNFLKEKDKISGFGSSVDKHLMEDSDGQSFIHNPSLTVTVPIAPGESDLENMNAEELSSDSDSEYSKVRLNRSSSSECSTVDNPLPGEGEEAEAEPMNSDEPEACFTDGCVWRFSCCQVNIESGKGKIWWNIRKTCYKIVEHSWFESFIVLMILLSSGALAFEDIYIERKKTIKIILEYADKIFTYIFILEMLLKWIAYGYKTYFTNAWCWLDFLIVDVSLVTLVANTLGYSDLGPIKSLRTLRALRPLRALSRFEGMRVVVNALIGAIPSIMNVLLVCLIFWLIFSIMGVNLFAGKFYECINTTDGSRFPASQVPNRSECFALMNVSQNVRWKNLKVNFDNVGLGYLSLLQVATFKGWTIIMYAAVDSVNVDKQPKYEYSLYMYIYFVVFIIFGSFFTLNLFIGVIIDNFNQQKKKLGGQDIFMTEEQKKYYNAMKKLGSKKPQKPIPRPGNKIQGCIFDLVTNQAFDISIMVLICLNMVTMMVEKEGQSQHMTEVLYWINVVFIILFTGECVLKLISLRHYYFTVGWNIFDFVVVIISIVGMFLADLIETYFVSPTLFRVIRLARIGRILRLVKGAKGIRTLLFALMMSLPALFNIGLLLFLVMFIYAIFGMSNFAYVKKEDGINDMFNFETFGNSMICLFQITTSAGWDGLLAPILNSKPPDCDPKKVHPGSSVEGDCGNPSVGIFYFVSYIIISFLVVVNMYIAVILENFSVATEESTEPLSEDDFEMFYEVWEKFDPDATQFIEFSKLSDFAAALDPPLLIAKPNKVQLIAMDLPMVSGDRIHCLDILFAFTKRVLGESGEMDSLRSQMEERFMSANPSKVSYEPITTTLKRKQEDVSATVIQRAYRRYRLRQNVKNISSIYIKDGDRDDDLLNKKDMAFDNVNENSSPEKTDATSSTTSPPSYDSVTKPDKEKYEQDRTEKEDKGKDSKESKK

Row | IC50 [nM] | Structure (SMILES)
1 | 835 | COc1cc(C(F)(F)F)ccc1-c1nccc2cc(S(=O)(=O)Nc3cc(Cl)ncn3)ccc12 [Example 422, N-(6-CHLOROPYRIMIDIN-4-YL)-1-(2-METHOXY-4-(TRIFLUOROMETHYL)PHENYL)ISOQUINOLINE-6-SULFONAMIDE]
2 | 1340 | COc1cc(C(F)(F)F)ccc1-c1nccc2cc(S(=O)(=O)Nc3ccon3)ccc12 [Example 423]
3 | 4420 | COc1cc(C(F)(F)F)ccc1-c1nccc2cc(S(=O)(=O)Nc3ccc(F)cn3)ccc12 [Example 427, N-(5-FLUOROPYRIDIN-2-YL)-1-(2-METHOXY-4-(TRIFLUOROMETHYL)PHENYL)ISOQUINOLINE-6-SULFONAMIDE]
4 | 4880 | COc1cc(C(F)F)c(OC)cc1-c1nccc2cc(S(=O)(=O)Nc3ccncn3)ccc12 [Example 453, 1-(4-(DIFLUOROMETHYL)-2,5-DIMETHOXYPHENYL)-N-(PYRIMIDIN-4-YL)ISOQUINOLINE-6-SULFONAMIDE]
5 | 904 | COc1cc(-c2ccc(C#N)cc2)ccc1-c1nccc2cc(S(=O)(=O)Nc3ccncn3)ccc12 [Example 455, 1-(4′-CYANO-3-METHOXY-[1,1′-BIPHENYL]-4-YL)-N-(PYRIMIDIN-4-YL)ISOQUINOLINE-6-SULFONAMIDE]
6 | 4700 | COc1cc(-c2nccs2)ccc1-c1nccc2cc(S(=O)(=O)Nc3ccncn3)ccc12 [Example 456, 1-(2-METHOXY-4-(THIAZOL-2-YL)PHENYL)-N-(PYRIMIDIN-4-YL)ISOQUINOLINE-6-SULFONAMIDE]
7 | 828 | COc1cc(C(F)F)c(Cl)cc1-c1nccc2cc(S(=O)(=O)Nc3ccncn3)ccc12 [Example 457, 1-(5-CHLORO-4-(DIFLUOROMETHYL)-2-METHOXYPHENYL)-N-(PYRIMIDIN-4-YL)ISOQUINOLINE-6-SULFONAMIDE]
8 | 1780 | COc1cc(-c2ccc(C)o2)ccc1-c1nccc2cc(S(=O)(=O)Nc3ccncn3)ccc12 [Example 461]
9 | 567 | COc1cc(Oc2ccccc2F)ccc1-c1nccc2cc(S(=O)(=O)Nc3ccncn3)ccc12 [Example 465, 1-(4-(2-FLUOROPHENOXY)-2-METHOXYPHENYL)-N-(PYRIMIDIN-4-YL)ISOQUINOLINE-6-SULFONAMIDE]
10 | 1360 | COc1cc(-c2cccnc2F)ccc1-c1nccc2cc(S(=O)(=O)Nc3ccncn3)ccc12 [Example 473, 1-(4-(2-FLUOROPYRIDIN-3-YL)-2-METHOXYPHENYL)-N-(PYRIMIDIN-4-YL)ISOQUINOLINE-6-SULFONAMIDE]
11 | 2610 | COc1cc(-c2ccnc(F)c2)ccc1-c1nccc2cc(S(=O)(=O)Nc3ccncn3)ccc12 [Example 474, 1-(4-(2-FLUOROPYRIDIN-4-YL)-2-METHOXYPHENYL)-N-(PYRIMIDIN-4-YL)ISOQUINOLINE-6-SULFONAMIDE]
12 | 1880 | COc1cc(-c2cncc(F)c2)ccc1-c1nccc2cc(S(=O)(=O)Nc3ccncn3)ccc12 [Example 475, 1-(4-(5-FLUOROPYRIDIN-3-YL)-2-METHOXYPHENYL)-N-(PYRIMIDIN-4-YL)ISOQUINOLINE-6-SULFONAMIDE]
13 | 2770 | COc1cc(-c2c(C)ccnc2F)ccc1-c1nccc2cc(S(=O)(=O)Nc3ccncn3)ccc12 [Example 480, 1-(4-(2-FLUORO-4-METHYLPYRIDIN-3-YL)-2-METHOXYPHENYL)-N-(PYRIMIDIN-4-YL)ISOQUINOLINE-6-SULFONAMIDE]
14 | 778 | COc1cc(-c2cccnc2OC)ccc1-c1nccc2cc(S(=O)(=O)Nc3ccncn3)ccc12 [Example 482, 1-(2-METHOXY-4-(2-METHOXYPYRIDIN-3-YL)PHENYL)-N-(PYRIMIDIN-4-YL)ISOQUINOLINE-6-SULFONAMIDE]
15 | 1400 | COc1ccc(-c2ccc(-c3nccc4cc(S(=O)(=O)Nc5ccncn5)ccc34)c(OC)c2)cn1 [Example 483, 1-(2-METHOXY-4-(6-METHOXYPYRIDIN-3-YL)PHENYL)-N-(PYRIMIDIN-4-YL)ISOQUINOLINE-6-SULFONAMIDE]
16 | 1830 | COc1cc(-c2ccc3[nH]ccc3c2)ccc1-c1nccc2cc(S(=O)(=O)Nc3ccncn3)ccc12 [Example 489, 1-(4-(1H-INDOL-5-YL)-2-METHOXYPHENYL)-N-(PYRIMIDIN-4-YL)ISOQUINOLINE-6-SULFONAMIDE]
17 | 830 | COc1nc(-c2ccc(F)c(F)c2)ccc1-c1nccc2cc(S(=O)(=O)Nc3ccncn3)ccc12 [Example 499, 1-(6-(3,4-DIFLUOROPHENYL)-2-METHOXYPYRIDIN-3-YL)-N-(PYRIMIDIN-4-YL)ISOQUINOLINE-6-SULFONAMIDE]

Second part, the compound before the results:

Row | Structure (SMILES) | IC50 [nM]
18 | COc1ncc(C(F)(F)F)cc1-c1nccc2cc(S(=O)(=O)Nc3nccs3)ccc12 [Example 409, 1-(2-METHOXY-5-(TRIFLUOROMETHYL)PYRIDIN-3-YL)-N-(THIAZOL-2-YL)ISOQUINOLINE-6-SULFONAMIDE] | 690
19 | COc1ncc(F)cc1-c1nccc2cc(S(=O)(=O)Nc3nccs3)ccc12 [Example 410, 1-(5-FLUORO-2-METHOXYPYRIDIN-3-YL)-N-(THIAZOL-2-YL)ISOQUINOLINE-6-SULFONAMIDE] | 1670
20 | COc1ncc(C)cc1-c1nccc2cc(S(=O)(=O)Nc3nccs3)ccc12 [Example 411, 1-(2-METHOXY-5-METHYLPYRIDIN-3-YL)-N-(THIAZOL-2-YL)ISOQUINOLINE-6-SULFONAMIDE] | 685
21 | COc1nc(C)ccc1-c1nccc2cc(S(=O)(=O)Nc3nccs3)ccc12 [Example 412, 1-(2-METHOXY-6-METHYLPYRIDIN-3-YL)-N-(THIAZOL-2-YL)ISOQUINOLINE-6-SULFONAMIDE] | 1030
22 | O=S(=O)(Nc1nccs1)c1ccc2c(-c3cc(F)ccc3OC(F)F)nccc2c1 [Example 413, 1-(2-(DIFLUOROMETHOXY)-5-FLUOROPHENYL)-N-(THIAZOL-2-YL)ISOQUINOLINE-6-SULFONAMIDE] | 830
23 | O=S(=O)(Nc1nccs1)c1ccc2c(-c3ccc(F)cc3OC3CCOCC3)nccc2c1 [Example 414, 1-(4-FLUORO-2-((TETRAHYDRO-2H-PYRAN-4-YL)OXY)PHENYL)-N-(THIAZOL-2-YL)ISOQUINOLINE-6-SULFONAMIDE] | 7110
24 | CC(C#N)Oc1cc(F)ccc1-c1nccc2cc(S(=O)(=O)Nc3nccs3)ccc12 (centres unmarked) [Example 415, 1-(2-(1-CYANOETHOXY)-4-FLUOROPHENYL)-N-(THIAZOL-2-YL)ISOQUINOLINE-6-SULFONAMIDE] | 1070
25 | N#CC(F)Oc1cc(F)ccc1-c1nccc2cc(S(=O)(=O)Nc3nccs3)ccc12 (centres unmarked) [Example 416, 1-(2-(CYANOFLUOROMETHOXY)-4-FLUOROPHENYL)-N-(THIAZOL-2-YL)ISOQUINOLINE-6-SULFONAMIDE] | 1220
26 | NC(=O)COc1cc(F)ccc1-c1nccc2cc(S(=O)(=O)Nc3nccs3)ccc12 [Example 417, 2-(5-FLUORO-2-(6-(N-(THIAZOL-2-YL)SULFAMOYL)ISOQUINOLIN-1-YL)PHENOXY)ACETAMIDE] | 1230
27 | COc1nc(OCC(C)C)ccc1-c1nccc2cc(S(=O)(=O)Nc3ccncn3)ccc12 [Example 418, 1-(6-ISOBUTOXY-2-METHOXYPYRIDIN-3-YL)-N-(PYRIMIDIN-4-YL)ISOQUINOLINE-6-SULFONAMIDE] | 2130
28 | COc1cc(C(F)(F)F)ccc1-c1nccc2cc(S(=O)(=O)Nc3ncc(Cl)s3)ccc12 [Example 420, N-(5-CHLOROTHIAZOL-2-YL)-1-(2-METHOXY-4-(TRIFLUOROMETHYL)PHENYL)ISOQUINOLINE-6-SULFONAMIDE] | 367
29 | COc1cc(C(F)(F)F)ccc1-c1nccc2cc(S(=O)(=O)Nc3nc(C)cs3)ccc12 [Example 424, 1-(2-METHOXY-4-(TRIFLUOROMETHYL)PHENYL)-N-(4-METHYLTHIAZOL-2-YL)ISOQUINOLINE-6-SULFONAMIDE] | 1660
30 | COc1cc(C(F)(F)F)ccc1-c1nccc2cc(S(=O)(=O)Nc3nnc(Cl)s3)ccc12 [Example 425, N-(5-CHLORO-1,3,4-THIADIAZOL-2-YL)-1-(2-METHOXY-4-(TRIFLUOROMETHYL)PHENYL)ISOQUINOLINE-6-SULFONAMIDE] | 2210
31 | COc1cc(C(F)(F)F)ccc1-c1nccc2cc(S(=O)(=O)Nc3ncc(F)cn3)ccc12 [Example 426] | 2490
32 | COc1cc(C(F)(F)F)ccc1-c1nccc2cc(S(=O)(=O)Nc3nc(C(F)(F)F)cs3)ccc12 [Example 428, 1-(2-METHOXY-4-(TRIFLUOROMETHYL)PHENYL)-N-(4-(TRIFLUOROMETHYL)THIAZOL-2-YL)ISOQUINOLINE-6-SULFONAMIDE] | 4570
33 | COc1cc(C(F)(F)F)ccc1-c1nccc2cc(S(=O)(=O)Nc3cocn3)ccc12 [Example 440, 1-(2-METHOXY-4-(TRIFLUOROMETHYL)PHENYL)-N-(OXAZOL-4-YL)ISOQUINOLINE-6-SULFONAMIDE] | 4100
34 | COc1cc(-c2cccnc2C)ccc1-c1nccc2cc(S(=O)(=O)Nc3ccncn3)ccc12 [Example 476, 1-(2-METHOXY-4-(2-METHYLPYRIDIN-3-YL)PHENYL)-N-(PYRIMIDIN-4-YL)ISOQUINOLINE-6-SULFONAMIDE] | 2890
35 | COc1cc(-c2ccc(C)nc2)ccc1-c1nccc2cc(S(=O)(=O)Nc3ccncn3)ccc12 [Example 477, 1-(2-METHOXY-4-(6-METHYLPYRIDIN-3-YL)PHENYL)-N-(PYRIMIDIN-4-YL)ISOQUINOLINE-6-SULFONAMIDE] | 4040
36 | COc1cc(-c2cncc(C)c2)ccc1-c1nccc2cc(S(=O)(=O)Nc3ccncn3)ccc12 [Example 478, 1-(2-METHOXY-4-(5-METHYLPYRIDIN-3-YL)PHENYL)-N-(PYRIMIDIN-4-YL)ISOQUINOLINE-6-SULFONAMIDE] | 3640
37 | COc1cc(-c2cnc(F)c(C)c2)ccc1-c1nccc2cc(S(=O)(=O)Nc3ccncn3)ccc12 [Example 481, 1-(4-(6-FLUORO-5-METHYLPYRIDIN-3-YL)-2-METHOXYPHENYL)-N-(PYRIMIDIN-4-YL)ISOQUINOLINE-6-SULFONAMIDE] | 788
38 | COc1ccc(Cl)cc1-c1n[nH]c(=O)c2cc(S(=O)(=O)Nc3ccncn3)ccc12 [Example 504, 1-(5-CHLORO-2-METHOXYPHENYL)-4-OXO-N-(PYRIMIDIN-4-YL)-3,4-DIHYDROPHTHALAZINE-6-SULFONAMIDE] | 1590
